Results published in patent publication US10039756B2, “Reducing memory loss in mammals suffering from alzheimer's disease” (The Penn State Research Foundation, priority 2013, dated 2018).

Experiments:
[1] = system: 5xFAD mice; test: Y-maze spontaneous alternation task; type: in vivo, mouse; conditions: 50 μmol kg-1, i.p., once per day for one week, p<0.05
Description: L-655,708 was dissolved at 1 mg/mL in DMSO, and frozen in storage aliquots. The working solution was diluted 10 times in normal saline solution. […] The last injection was administrated 30 minutes before behavioral test.
Spontaneous alternation performance was tested as described elsewhere (Oakley et al., J. Neurosci., 26(40):10129-10140 (2006)). […] It allows the assessment of hippocampus-dependent spatial working memory. Each mouse was placed in the center of a symmetrical Y-maze and was allowed to explore freely through the maze during an 8 minute session. The first two minutes were not included for data analysis because mice were exploring new environment. The total number and the sequence of arm entries in the last 6 minutes were recorded and analyzed. Arm entry was defined as the hind paws of the mice had been completely placed in the arm. Analysis was done blind. The percentage of alternation is the number of triads containing entries into all three arms divided by the maximum possible alternations (the total number of arms entered minus 2)×100.
A behavioral analysis was conducted to test the effect of enhanced tonic inhibition on the cognitive function of 5xFAD animals. […] Therefore, it was concluded that the abnormal tonic inhibition in DG is an important contributing factor toward the learning and memory deficit in AD.

[2] = molecular target: T1, GAT-3 (Mus musculus, UniProt P31650); test: Tonic GABA current, whole-cell patch clamp in dentate granule cells of hippocampal slices, GAT-3 block; type: cell-based; conditions: 50 μM; AD (5xFAD) dentate granule cells
T1 construct: from tissue; host or cells: mouse hippocampal slices (5xFAD and WT littermates), dentate gyrus
T1 sequence (P31650 1-627): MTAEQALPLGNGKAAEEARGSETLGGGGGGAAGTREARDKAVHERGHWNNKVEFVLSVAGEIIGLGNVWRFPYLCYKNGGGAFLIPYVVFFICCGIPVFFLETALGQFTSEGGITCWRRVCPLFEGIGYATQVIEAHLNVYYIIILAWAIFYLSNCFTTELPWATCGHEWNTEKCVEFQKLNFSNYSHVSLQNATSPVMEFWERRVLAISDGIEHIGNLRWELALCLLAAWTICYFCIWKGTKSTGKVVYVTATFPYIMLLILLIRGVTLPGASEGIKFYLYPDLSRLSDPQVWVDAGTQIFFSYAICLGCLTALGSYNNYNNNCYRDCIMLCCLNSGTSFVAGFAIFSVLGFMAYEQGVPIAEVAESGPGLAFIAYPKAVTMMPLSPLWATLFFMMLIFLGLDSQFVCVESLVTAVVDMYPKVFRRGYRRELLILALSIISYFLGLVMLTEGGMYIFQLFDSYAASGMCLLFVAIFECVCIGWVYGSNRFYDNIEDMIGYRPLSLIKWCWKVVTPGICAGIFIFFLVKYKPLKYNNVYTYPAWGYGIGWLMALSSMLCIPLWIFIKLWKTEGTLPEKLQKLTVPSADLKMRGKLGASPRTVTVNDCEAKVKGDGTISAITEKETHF
Description: (§1) Mice were anesthetized with 2.5% Avertin. After decapitation, brains were rapidly dissected out and placed in ice-cold cutting solution containing: 79 mM NaCl, 80 mM sucrose, 26 mM NaHCO3, 10 mM glucose, 2.5 mM KCl, 1.25 mM NaH2PO4, 7 mM MgSO4, and 0.5 mM CaCl2 for tonic current recordings. The cutting solution for field EPSP recordings contained: 230 mM sucrose, 26 mM NaHCO3, 20 mM glucose, 2.5 mM KCl, 1.25 mM NaH2PO4, 10 mM MgSO4, and 0.5 mM CaCl2. Both solutions were bubbled with 95% O2/5% CO2. […]
(§2) Whole-cell voltage clamp recordings were performed on dentate gyrus granule cells using a pipette solution containing: 135 mM CsCl, 5 mM Na-phosphocreatine, 10 mM HEPES, 5 mM EGTA, 4 mM MgATP, 5 mM QX-314, and 0.5 mM Na2GTP (pH 7.3 adjusted with CsOH, 280-290 mOsm/L). […] Data was acquired using pClamp 9 software (Molecular Devices; sampled at 10 kHz and filtered at 1 kHz), and analyzed with Clampfit 9.0 software (Molecular Devices). Field excitatory postsynaptic potentials (fEPSPs) were recorded with glass electrodes filled with 1 M NaCl and 25 mM HEPES (pH 7.3), and were evoked every 20 seconds with a parallel bipolar tungsten electrode (MicroProbes, USA), which was placed at medial perforant path in the dentate gyrus. […]

[3] = system: LTP in DG; test: Long-term potentiation (LTP) in dentate gyrus, hippocampal slice field EPSP recordings; type: cell-based, mouse; conditions: 50 μM; 5xFAD dentate granule cells
Description: as §1, §2

COc1ccc(C(OCCN2CCC[C@H](C(=O)O)C2)(c2ccc(OC)cc2)c2ccc(OC)cc2)cc1 [SNAP-5114, (S)-1-[2-[tris(4-methoxyphenyl)methoxy]ethyl]-3-piperidinecarboxylic acid] was tested, and the “effect on memory deficit (spontaneous alternation)” value [1] was “rescued the memory deficit”, the “block of tonic GABA current” value [2] was “blocked the majority of the tonic GABA current” and the “effect on LTP impairment” value [3] was “rescued the LTP impairment”.
